Measured values taken from patent US9145392B2, “Imidazole amines as modulators of kinase activity” (Merck Patent GmbH, priority 2011, dated 2015).

Columns and labels:
[1] = biological target: P70S6K (T412E mutant) (Homo sapiens (Human), UniProt P23443, T412E); experiment: P70S6K enzyme assay; assay type: biochemical; conditions: read-out: IC50 p70S6K
Summary of the method: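 Phosphorylated product and substrate peptide separated by microfluidic capillary electrophoresis (Caliper LabChip 3000), product peaks resolving before substrate.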

[2] = biological target: His-AKT (Full Length) (Homo sapiens (Human), UniProt P31749); experiment: AKT enzyme assay; assay type: biochemical; conditions: read-out: IC50 AKT
Sequence of His-AKT (Full Length) (P31749 whole entry): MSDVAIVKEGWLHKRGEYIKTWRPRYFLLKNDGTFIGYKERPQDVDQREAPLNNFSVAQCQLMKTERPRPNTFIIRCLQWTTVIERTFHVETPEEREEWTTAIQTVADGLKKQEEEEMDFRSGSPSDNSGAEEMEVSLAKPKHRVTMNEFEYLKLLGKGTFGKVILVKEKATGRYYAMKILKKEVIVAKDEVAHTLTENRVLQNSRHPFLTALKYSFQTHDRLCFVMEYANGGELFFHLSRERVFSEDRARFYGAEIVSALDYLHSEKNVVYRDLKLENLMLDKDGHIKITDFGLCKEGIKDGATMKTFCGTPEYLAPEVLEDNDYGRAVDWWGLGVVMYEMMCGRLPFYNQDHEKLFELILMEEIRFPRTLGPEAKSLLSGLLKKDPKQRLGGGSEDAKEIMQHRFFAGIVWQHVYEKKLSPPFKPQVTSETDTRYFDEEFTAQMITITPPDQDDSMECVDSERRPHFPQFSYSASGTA

Sequence of P70S6K (T412E mutant) (P23443 whole entry T412E): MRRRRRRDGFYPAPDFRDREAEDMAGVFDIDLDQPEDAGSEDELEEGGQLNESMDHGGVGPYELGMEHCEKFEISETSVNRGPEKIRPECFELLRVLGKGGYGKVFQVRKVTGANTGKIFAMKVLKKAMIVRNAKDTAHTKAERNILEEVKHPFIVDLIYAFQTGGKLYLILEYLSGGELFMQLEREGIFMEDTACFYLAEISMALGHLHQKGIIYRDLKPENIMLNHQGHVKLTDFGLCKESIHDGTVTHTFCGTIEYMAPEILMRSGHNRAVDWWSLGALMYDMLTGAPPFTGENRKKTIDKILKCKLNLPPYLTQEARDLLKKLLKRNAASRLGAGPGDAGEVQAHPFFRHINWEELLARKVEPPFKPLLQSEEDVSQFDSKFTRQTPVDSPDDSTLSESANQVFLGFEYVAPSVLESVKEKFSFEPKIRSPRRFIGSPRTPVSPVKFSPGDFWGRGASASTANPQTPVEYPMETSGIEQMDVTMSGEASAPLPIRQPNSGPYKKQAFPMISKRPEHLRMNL

| Structure (SMILES) | IC50 [1] | IC50 [2] |
| --- | --- | --- |
| CCc1c(N)ncnc1N1CCC(c2nc(-c3cccc(Cl)c3)cn2CCN2CCCC2)CC1 [Compound 274] | 1.5 nM | 12 nM |
| Nc1ncnc(N2CCC(c3nc(-c4ccc(F)c(C(F)(F)F)c4)cn3CCN3CCC3)CC2)c1-c1cc[nH]c1 [Compound 110, 6-(4-(1-(2-(azetidin-1-yl)ethyl)-4-(4-fluoro-3-(trifluoromethyl)phenyl)-1H-imidazol-2-yl)piperidin-1-yl)-5-(1H-pyrrol-3-yl)pyrimidin-4-amine] | 0.7 nM | 1.9 nM |
| N#Cc1c(N)ncnc1N1CCC(c2nc(-c3ccsc3)cn2CCN2CCC2)CC1 [Compound 130, 4-amino-6-(4-(1-(2-(azetidin-1-yl)ethyl)-4-(thiophen-3-yl)-1H-imidazol-2-yl)piperidin-1-yl)pyrimidine-5-carbonitrile] | 2.6 nM | 91 nM |
| Nc1ncnc(N2CCC(c3nc(-c4cccc(F)c4)cn3CCN3CCCC3)CC2)c1C1CCC1 [Compound 257] | 4 nM | 20 nM |
| Cc1ncc(-c2c(N)ncnc2N2CCC(c3nc(-c4ccc(F)c(C(F)(F)F)c4)cn3C)CC2)s1 [Compound 55, 6-{4-[4-(4-Fluoro-3-trifluoromethyl-phenyl)-1-methyl-1H-imidazol-2-yl]-piperidin-1-yl}-5-(2-methyl-thiazol-5-yl)-pyrimidin-4-ylamine] | 2.1 nM | 850 nM |
| CNCCn1cc(-c2ccc(F)c(C(F)(F)F)c2)nc1C1CCN(c2ncnc(N)c2C(N)=O)CC1 [Compound 376, 4-Amino-6-{4-[4-(4-fluoro-3-trifluoromethyl-phenyl)-1-(2-methylamino-ethyl)-1H-imidazol-2-yl]-piperidin-1-yl}-pyrimidine-5-carboxylic acid amide] | 3.4 nM | 33 nM |
| CCc1c(N)ncnc1N1CCC(c2nc(-c3ccc(F)c(C(F)(F)F)c3)cn2CCN2CC(F)(F)C2)CC1 [Compound 94, 6-(4-(1-(2-(3,3-difluoroazetidin-1-yl)ethyl)-4-(4-fluoro-3-(trifluoromethyl)phenyl)-1H-imidazol-2-yl)piperidin-1-yl)-5-ethylpyrimidin-4-amine] | 13 nM | 1600 nM |
| CCc1c(N)ncnc1N1CCC(c2nc(-c3ccc(F)cc3)cn2CCN2CCOCC2)CC1 [Compound 195, 5-Ethyl-6-{4-[4-(4-fluoro-phenyl)-1-(2-morpholin-4-yl-ethyl)-1H-imidazol-2-yl]-piperidin-1-yl}-pyrimidin-4-ylamine] | 16 nM | > 1000 nM |
| CCc1c(N)ncnc1N1CCC(c2nc(-c3cncc(Cl)c3)cn2CCN2CCC2)CC1 [Compound 101, 6-(4-(1-(2-(azetidin-1-yl)ethyl)-4-(5-chloropyridin-3-yl)-1H-imidazol-2-yl)piperidin-1-yl)-5-ethylpyrimidin-4-amine] | 7.6 nM | 31 nM |
| NC(=O)c1c(N)ncnc1N1CCC(c2nc(-c3cnoc3)cn2CCN2CCC2)CC1 [Compound 135, 4-amino-6-(4-(1-(2-(azetidin-1-yl)ethyl)-4-(isoxazol-4-yl)-1H-imidazol-2-yl)piperidin-1-yl)pyrimidine-5-carboxamide] | 860 nM | 760 nM |
| CN(C)CCn1cc(-c2ccc(F)c(C(F)(F)F)c2)nc1C1CCN(c2ncnc(N)c2-c2ccc(C(=O)O)cc2)CC1 [Compound 89] | 7.3 nM | 33 nM |
| NC(=O)c1c(N)ncnc1N1CCC(c2nc(-c3cccc(Cl)c3)cn2CCN2CCCC2)CC1 [Compound 336] | 7.6 nM | 76 nM |
| NC(=O)c1c(N)ncnc1N1CCC(c2nc(-c3ccccc3)cn2CCN2CCC2)CC1 [Compound 136, 4-amino-6-(4-(1-(2-(azetidin-1-yl)ethyl)-4-phenyl-1H-imidazol-2-yl)piperidin-1-yl)pyrimidine-5-carboxamide] | 8.4 nM | 1900 nM |
| CNc1ncnc(N2CCC(c3nc(-c4ccnc(C(F)(F)F)c4)cn3CCN3CCC3)CC2)c1Cl [Compound 192, 6-(4-(1-(2-(azetidin-1-yl)ethyl)-4-(2-(trifluoromethyl)pyridin-4-yl)-1H-imidazol-2-yl)piperidin-1-yl)-5-chloro-N-methylpyrimidin-4-amine] | 2700 nM | 7200 nM |
| COC(=O)c1ccc(-c2c(N)ncnc2N2CCC(c3nc(-c4ccc(F)c(C(F)(F)F)c4)cn3CCN(C)C)CC2)cc1 [Compound 88, Methyl 4-(4-amino-6-(4-(1-(2-(dimethylamino)ethyl)-4-(4-fluoro-3-(trifluoromethyl)phenyl)-1H-imidazol-2-yl)piperidin-1-yl)pyrimidin-5-yl)benzoate] | 8.1 nM | 95 nM |
| Cn1cc(-c2ccc(F)c(C(F)(F)F)c2)nc1C1CCN(c2ncnc(N)c2-c2ccncc2)CC1 [Compound 39, 6-{4-[4-(4-Fluoro-3-trifluoromethyl-phenyl)-1-methyl-1H-imidazol-2-yl]-piperidin-1-yl}-5-pyridin-4-yl-pyrimidin-4-ylamine] | 1.4 nM | 860 nM |
| CCc1c(N)ncnc1N1CCC(c2nc(-c3ccc(Cl)cc3)cn2CCN2CCCC2)CC1 [Compound 273] | 7.4 nM | 190 nM |
| CC(C)Oc1c(N)ncnc1N1CCC(c2nc(-c3ccc(F)c(C(F)(F)F)c3)cn2CCN2CCC2)CC1 [Compound 96, 6-(4-(1-(2-(azetidin-1-yl)ethyl)-4-(4-fluoro-3-(trifluoromethyl)phenyl)-1H-imidazol-2-yl)piperidin-1-yl)-5-isopropoxypyrimidin-4-amine] | 5.3 nM | 7.9 nM |

| Structure (SMILES) | IC50 [1] | IC50 [2] |
| --- | --- | --- |
| NC(=O)c1c(N)ncnc1N1CCC(c2nc(-c3ccc(F)c(OC(F)F)c3)cn2CCN2CCC2)CC1 [Compound 338] | 2 nM | 29 nM |
| C=Cc1c(N)ncnc1N1CCC(c2nc(-c3ccc(F)c(C(F)(F)F)c3)cn2CCN2CCC2)CC1 [Compound 220] | 2.6 nM | 4.2 nM |
| N#Cc1c(N)ncnc1N1CCC(c2nc(-c3ccc4[nH]ncc4c3)cn2CCN2CCC2)CC1 [Compound 207, 4-Amino-6-{4-[1-(2-azetidin-1-yl-ethyl)-4-(1H-indazol-5-yl)-1H-imidazol-2-yl]-piperidin-1-yl}-pyrimidine-5-carbonitrile] | 22 nM | 105 nM |
| Nc1ncnc(N2CCC(c3nc(-c4ccc(F)c(C(F)(F)F)c4)cn3CCN3CCCC3)CC2)c1C=O [Compound 287] | 0.6 nM | 1 nM |
| Nc1cc(N2CCC(c3nc(-c4ccc(C(F)(F)F)cc4)cn3CCN3CCCC3)CC2)ncn1 [Compound 270] | 360 nM | 1000 nM |
| CCc1c(N)ncnc1N1CCC(c2nc(-c3ccc(F)c(F)c3)cn2CCN2CC3(COC3)C2)CC1 [Compound 198, 6-(4-{4-(3,4-Difluoro-phenyl)-1-[2-(2-oxa-6-aza-spiro[3.3]hept-6-yl)-ethyl]-1H-imidazol-2-yl}-piperidin-1-yl)-5-ethyl-pyrimidin-4-ylamine] | 11 nM | 255 nM |
| CCc1c(N)ncnc1N1CCC(c2nc(-c3ccc(F)c(C(F)(F)F)c3)cn2CC2CNC2)CC1 [Compound 151, 6-(4-(1-(azetidin-3-ylmethyl)-4-(4-fluoro-3-(trifluoromethyl)phenyl)-1H-imidazol-2-yl)piperidin-1-yl)-5-ethylpyrimidin-4-amine] | 2.2 nM | 19 nM |
| CC(C)c1cc(-c2cn(CCN3CCC3)c(C3CCN(c4ncnc(N)c4C#N)CC3)n2)ccn1 [Compound 317] | 1.7 nM | 11 nM |
| Nc1ncnc(N2CCC(c3nc(-c4ccc(Cl)c(F)c4)cn3CCN3CCCC3)CC2)c1Br [Compound 266] | 3.3 nM | 16 nM |
| CCc1c(N)ncnc1N1CCC(c2nc(-c3ccc(F)c(OC)c3)cn2CCN2CCC2)CC1 [Compound 108, 6-(4-(1-(2-(azetidin-1-yl)ethyl)-4-(4-fluoro-3-methoxyphenyl)-1H-imidazol-2-yl)piperidin-1-yl)-5-ethylpyrimidin-4-amine] | 2.2 nM | 4.8 nM |
| Nc1ncnc(N2CCC(c3nc(-c4ccc(F)c(Cl)c4)cn3CCN3CCCC3)CC2)c1C1CCC1 [Compound 262] | 4 nM | 4.9 nM |
| CC(C)c1cc(-c2cn(CCN3CCC3)c(C3CCN(c4ncnc(N)c4Br)CC3)n2)ccn1 [Compound 181, 6-(4-(1-(2-(azetidin-1-yl)ethyl)-4-(2-isopropylpyridin-4-yl)-1H-imidazol-2-yl)piperidin-1-yl)-5-bromopyrimidin-4-amine] | 0.11 nM | 0.15 nM |
| NC(=O)c1c(N)ncnc1N1CCC(c2nc(C3CCCCC3)cn2CCN2CCC2)CC1 [Compound 80, 4-Amino-6-{4-[1-(2-azetidin-1-yl-ethyl)-4-cyclohexyl-1H-imidazol-2-yl]-piperidin-1-yl}-pyrimidine-5-carboxylic acid amide] | 95 nM | 1400 nM |
| Nc1cc(N2CCC(c3nc(-c4ccc(F)c(C(F)(F)F)c4)cn3CCN3CCCCC3)CC2)ncn1 [Compound 66] | 110 nM | 410 nM |
| Nc1ncnc(N2CCC(c3nc(-c4ccc(F)c(C(F)(F)F)c4)cn3CCN3CCC3)CC2)c1OCC(F)(F)F [Compound 103, 6-(4-(1-(2-(azetidin-1-yl)ethyl)-4-(4-fluoro-3-(trifluoromethyl)phenyl)-1H-imidazol-2-yl)piperidin-1-yl)-5-(2,2,2-trifluoroethoxy)pyrimidin-4-amine] | 4.2 nM | 6.6 nM |
| N#Cc1c(N)ncnc1N1CCC(c2nc(-c3ccoc3)cn2CCN2CCC2)CC1 [Compound 129, 4-amino-6-(4-(1-(2-(azetidin-1-yl)ethyl)-4-(furan-3-yl)-1H-imidazol-2-yl)piperidin-1-yl)pyrimidine-5-carbonitrile] | 11 nM | 250 nM |
| CCc1c(N)ncnc1N1CCC(c2nc(-c3ccc(F)c(C(F)(F)F)c3)cn2C[C@@H]2CCN2)CC1 [Compound 152, (S)-6-(4-(1-(azetidin-2-ylmethyl)-4-(4-fluoro-3-(trifluoromethyl)phenyl)-1H-imidazol-2-yl)piperidin-1-yl)-5-ethylpyrimidin-4-amine] | 5.2 nM | 280 nM |
